Among the data in US11596611B2, “Hepatitis B antiviral agents” (ENANTA PHARMACEUTICALS, INC., priority 2017, dated 2023) are EC50 values, retold here.

Broadly, the EC50 is the concentration giving half of the maximal effect.

Where only a bound is given, the exact number is not on record here.

For the first assay, the system named is HBV. Nature of the assay: HepAD38 antiviral assay: reduction of viral product accumulation (virion DNA by qPCR, HBsAg or HBeAg by ELISA). In kind it is cell-based, hepatitis B virus. The settings on record: Hepatitis B virus, 120 h; HepAD38 cells, five days after compound addition; 50% reduction of viral product vs no drug controls; read-out: HepAD38 EC50. In short, it runs like this: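 Tetracycline-free HepAD38 cells exposed to compound (DMSO stock diluted 1:200) for 5 days, or 8 days with media and compound refreshed on d2 and d5. Virion DNA quantified by qPCR after lysis; HBsAg or HBeAg measured by ELISA on diluted samples.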
In general terms: Quantitative PCR measures a nucleic acid by following its amplification.
In the case of `C[C@@H](CO)NC(=O)[C@H]1C[C@@H](S(=O)(=O)c2cc(C(=O)Nc3ccc(F)c(F)c3)ccc2Cl)C1` [Example 256b], the EC50 was over 0.2 µM.

Regarding `COC(=O)CCNC(=O)C[C@]1(O)C2CCC1C[C@@H](S(=O)(=O)c1cc(C(=O)Nc3cc(F)c(F)c(F)c3)ccc1Cl)C2` [Example 139], the EC50 was over 0.2 µM.

Regarding `COC(=O)N1C[C@H](O)C[C@H]1C(=O)NCC(O)[C@]1(O)C2CCC1C[C@@H](S(=O)(=O)c1cc(C(=O)Nc3cc(F)c(F)c(F)c3)ccc1Cl)C2` (some centres unmarked) [Example 107], the EC50 is over 0.2 µM. Consider `Cc1ccc(C(=O)Nc2ccc(F)c(F)c2)cc1S(=O)(=O)[C@H]1CC2CCC(C1)[C@@]2(C)O` [Example 47], for which the EC50 was in the range of 0.1 to 0.2 µM.

Turning to `C[C@H](O)[C@@H](O)[C@@]1(O)C2CC(O)C1C[C@H](S(=O)(=O)c1cc(C(=O)Nc3ccc(F)c(F)c3)ccc1Cl)C2` (some centres unmarked) [Example 337], the EC50 is over 0.2 µM. The same measure, in the same setting: under `O=C(Nc1ccc(F)c(F)c1)c1ccc(Cl)c(S(=O)(=O)[C@H]2CC3CCC(C2)[C@]3(O)[C@H](O)c2ccc(F)cn2)c1` (single isomer, unassigned) [Example 291b] stands under 0.104 µM. Consider `C[C@@]1(O)C2CC[C@H]1C[C@H](S(=O)(=O)c1cc(C(=O)Nc3ccc(F)c(F)c3)c(Cc3ccccc3)cc1Cl)C2` [Example 160], for which the EC50 is over 0.2 µM.

On to `COC(=O)CNC(=O)[C@H]1C[C@@H](S(=O)(=O)c2cc(C(=O)Nc3ccc(F)c(F)c3)ccc2Cl)C1` [Example 253b], for which the EC50 is over 0.2 µM. On the same count and under the same terms, under `CC(C)([C@H]1CC[C@H](O)CC1)S(=O)(=O)c1cc(C(=O)Nc2ccc(F)c(F)c2)ccc1Cl` [Example 236] stands over 0.2 µM. On the same count and under the same terms, under `COC(=O)N1C[C@H](O)C[C@H]1C(=O)NC[C@]1(O)C2CCC1C[C@@H](S(=O)(=O)c1cc(C(=O)Nc3cc(F)c(F)c(F)c3)ccc1Cl)C2` [Example 8] stands over 0.2 µM. For the molecule `COC(=O)NCC(O)C(=O)NC[C@]1(O)C2CCC1C[C@@H](S(=O)(=O)c1cc(C(=O)Nc3cc(F)c(F)c(F)c3)ccc1Cl)C2` (some centres unmarked) [Example 96], the EC50 fell in the range of 0.1 to 0.2 µM. Same read-out and setting: under `COC[C@H](C)NC(=O)C[C@]1(O)C2CCC1C[C@@H](S(=O)(=O)c1cc(C(=O)Nc3cc(F)c(F)c(F)c3)ccc1Cl)C2` [Example 118] stands under 0.104 µM; under `COC[C@]1(O)C2CCC1C[C@H](S(=O)(=O)c1cc(C(=O)Nc3cc(F)c(F)c(F)c3)ccc1Cl)C2` [Example 124], under 0.104 µM. Still for that read-out and setting: under `C[C@@H](CO)NC(=O)[C@H]1C[C@H](S(=O)(=O)c2cc(C(=O)Nc3ccc(F)c(F)c3)ccc2Cl)C1` [Example 256a] stands over 0.2 µM.

`CC(C)(O)C(O)CNC(=O)C[C@]1(O)C2CCC1C[C@@H](S(=O)(=O)c1cc(C(=O)Nc3cc(F)c(F)c(F)c3)ccc1Cl)C2` (some centres unmarked) [Example 56]: the EC50 lay in the range of 0.1 to 0.2 µM. For the molecule `O=C(CC1(O)CC(S(=O)(=O)c2cc(C(=O)Nc3ccc(F)c(F)c3)ccc2Cl)C1)NCCCO` (centres unmarked) [Example 249], the EC50 is over 0.2 µM. Still for that read-out and setting: under `CC(O)C[C@]1(O)CC[C@@H](CS(=O)(=O)c2cc(C(=O)Nc3ccc(F)c(F)c3)ccc2Cl)CC1` (some centres unmarked) [Example 224] stands 0.1 to 0.2 µM; under `COC[C@@H](C)NC(=O)C[C@]1(O)C2CCC1C[C@@H](S(=O)(=O)c1cc(C(=O)Nc3cc(F)c(F)c(F)c3)ccc1Cl)C2` [Example 115], under 0.104 µM. Still for that read-out and setting: under `O=C(Nc1cc(F)c(F)c(F)c1)c1ccc(Cl)c(S(=O)(=O)[C@@H]2CC3CC[C@@H](C2)[C@@]3(O)CNC(=O)[C@H]2OCC(O)[C@@H]2O)c1` (some centres unmarked) [Example 29] stands over 0.2 µM.

`O=C(Nc1ccc(F)c(F)c1)c1ccc(Cl)c(S(=O)(=O)C2CC(O)(CCO)C2)c1` (centres unmarked) [Example 240]: the half-maximal effective concentration (EC50) was over 0.2 µM.

With `CC(C)(C)OC(=O)N1CC[C@@H](O)[C@H]1C(=O)NC[C@@]1(O)C2CC[C@H]1C[C@H](S(=O)(=O)c1cc(C(=O)Nc3cc(F)c(F)c(F)c3)ccc1Cl)C2` [Example 76], the EC50 is under 0.104 µM. Same read-out and setting: under `COC(=O)CCNC(=O)CC1(O)CC(S(=O)(=O)c2cc(C(=O)Nc3ccc(F)c(F)c3)ccc2Cl)C1` (centres unmarked) [Example 248] stands over 0.2 µM; under `COc1cc(NC(=O)c2ccc(Cl)c(S(=O)(=O)[C@H]3CC4CCC(C3)[C@@]4(C)O)c2)ccc1F` [Example 104], over 0.2 µM. Same read-out and setting: under `CC(C)(O)C[C@]1(O)CC[C@@H](CS(=O)(=O)c2cc(C(=O)Nc3ccc(F)c(F)c3)ccc2Cl)CC1` [Example 228] stands over 0.2 µM.

Take `C[C@H](O)COCC1(O)CC(CS(=O)(=O)c2cc(C(=O)Nc3ccc(F)c(F)c3)ccc2Cl)C1` (some centres unmarked) [Example 208]: the EC50 was over 0.2 µM. On the same count and under the same terms, under `O=C(Nc1ccc(F)c(F)c1)c1ccc(Cl)c(S(=O)(=O)CC2CC=CCC2)c1` (centres unmarked) [Example 227] stands over 0.2 µM; under `Cc1ccc(C(O)[C@]2(O)C3CCC2C[C@@H](S(=O)(=O)c2cc(C(=O)Nc4ccc(F)c(F)c4)ccc2Cl)C3)nc1` (some centres unmarked) [Example 293], under 0.104 µM. With `COCCOCCOC[C@]1(O)C2CCC1C[C@@H](S(=O)(=O)c1cc(C(=O)Nc3cc(F)c(F)c(F)c3)ccc1Cl)C2` [Example 99], the EC50 was under 0.104 µM. The same measure, in the same setting: under `O=C(Nc1ccc(F)c(F)c1)c1ccc(Cl)c(S(=O)(=O)CC2CC(O)(CO)C2)c1` (centres unmarked) [Example 200] stands over 0.2 µM; under `CC(C)(O)CNC(=O)C[C@]1(O)CC[C@@H](CS(=O)(=O)c2cc(C(=O)Nc3ccc(F)c(F)c3)ccc2Cl)CC1` [Example 195], over 0.2 µM; under `O=C(Nc1ccc(F)c(F)c1)c1ccc(Cl)c(S(=O)(=O)CC2CCC(O)(C(O)CO)CC2)c1` (centres unmarked) [Example 199], over 0.2 µM. The same measure, in the same setting: under `O=C1N[C@H](C(=O)NC[C@]2(O)C3CCC2C[C@@H](S(=O)(=O)c2cc(C(=O)Nc4cc(F)c(F)c(F)c4)ccc2Cl)C3)CO1` [Example 85] stands over 0.2 µM. For the molecule `O=C(Nc1ccc(F)c(F)c1)c1ccc(Cl)c(S(=O)(=O)[C@H]2CC3CCC(C2)[C@H]3O)c1` (single isomer, unassigned) [Example 206], the EC50 lay in the range of 0.1 to 0.2 µM. Same read-out and setting: under `O=C(Nc1cc(F)c(F)c(F)c1)c1ccc(Cl)c(S(=O)(=O)[C@H]2CC3CCC(C2)[C@]3(O)COC[C@H](O)C(O)CO)c1` (some centres unmarked) [Example 60] stands 0.1 to 0.2 µM; under `CC(C)N(C)C[C@]1(O)C2CCC1C[C@@H](S(=O)(=O)c1cc(C(=O)Nc3ccc(F)c(F)c3)ccc1Cl)C2` [Example 304], under 0.104 µM; under `COC(=O)N1CC(=O)C[C@H]1C(=O)NC[C@]1(O)C2CCC1C[C@@H](S(=O)(=O)c1cc(C(=O)Nc3cc(F)c(F)c(F)c3)ccc1Cl)C2` [Example 74], 0.1 to 0.2 µM.

As for `O=C(Nc1ccc(F)c(F)c1)c1ccc(Cl)c(S(=O)(=O)[C@H]2C3CC[C@H]2C[C@](O)(c2ncc[nH]2)C3)c1` [Example 6], the EC50 is under 0.104 µM. Still for that read-out and setting: under `C=CC1(O)CC(S(=O)(=O)c2cc(C(=O)Nc3ccc(F)c(F)c3)ccc2Cl)C1` (centres unmarked) [Example 260] stands over 0.2 µM; under `Cn1nccc1C(O)[C@]1(O)C2CCC1C[C@@H](S(=O)(=O)c1cc(C(=O)Nc3ccc(F)c(F)c3)ccc1Cl)C2` (some centres unmarked) [Example 288], under 0.104 µM. In the case of `C[C@]1(O)C2CCC1C[C@@H](S(=O)(=O)c1cc(C(=O)Nc3ccc(F)c(O)c3)ccc1Cl)C2` [Example 134], the 50% effective concentration (EC50) is over 0.2 µM.

The assay is the same for the next values; noted with them: Hepatitis B virus, HePAD38, 120 h, read-out: HepAD38 EC50 (μM).
As for `COC(=O)N[C@H](C(=O)N1C2CCC1CC(S(=O)(=O)c1cc(C(=O)Nc3cc(F)c(F)c(F)c3)ccc1Cl)C2)C(C)C` (some centres unmarked) [Example 142], the EC50 fell in the range of 0.1 to 0.2 µM.
